The text below walks through data of ChEMBL document CHEMBL1151054, “Fungal metabolite of naftazone inhibits nitrite production by activated murine macrophages” (Bioorg Med Chem Lett, 1995).

By IC50 is commonly meant the concentration that gives 50% inhibition. Low readings indicate greater potency, high ones weaker potency.

Assay [1] deals with T1, Nitric oxide synthase, inducible (Mus musculus, UniProt P29477).
T1 sequence (P29477 whole entry): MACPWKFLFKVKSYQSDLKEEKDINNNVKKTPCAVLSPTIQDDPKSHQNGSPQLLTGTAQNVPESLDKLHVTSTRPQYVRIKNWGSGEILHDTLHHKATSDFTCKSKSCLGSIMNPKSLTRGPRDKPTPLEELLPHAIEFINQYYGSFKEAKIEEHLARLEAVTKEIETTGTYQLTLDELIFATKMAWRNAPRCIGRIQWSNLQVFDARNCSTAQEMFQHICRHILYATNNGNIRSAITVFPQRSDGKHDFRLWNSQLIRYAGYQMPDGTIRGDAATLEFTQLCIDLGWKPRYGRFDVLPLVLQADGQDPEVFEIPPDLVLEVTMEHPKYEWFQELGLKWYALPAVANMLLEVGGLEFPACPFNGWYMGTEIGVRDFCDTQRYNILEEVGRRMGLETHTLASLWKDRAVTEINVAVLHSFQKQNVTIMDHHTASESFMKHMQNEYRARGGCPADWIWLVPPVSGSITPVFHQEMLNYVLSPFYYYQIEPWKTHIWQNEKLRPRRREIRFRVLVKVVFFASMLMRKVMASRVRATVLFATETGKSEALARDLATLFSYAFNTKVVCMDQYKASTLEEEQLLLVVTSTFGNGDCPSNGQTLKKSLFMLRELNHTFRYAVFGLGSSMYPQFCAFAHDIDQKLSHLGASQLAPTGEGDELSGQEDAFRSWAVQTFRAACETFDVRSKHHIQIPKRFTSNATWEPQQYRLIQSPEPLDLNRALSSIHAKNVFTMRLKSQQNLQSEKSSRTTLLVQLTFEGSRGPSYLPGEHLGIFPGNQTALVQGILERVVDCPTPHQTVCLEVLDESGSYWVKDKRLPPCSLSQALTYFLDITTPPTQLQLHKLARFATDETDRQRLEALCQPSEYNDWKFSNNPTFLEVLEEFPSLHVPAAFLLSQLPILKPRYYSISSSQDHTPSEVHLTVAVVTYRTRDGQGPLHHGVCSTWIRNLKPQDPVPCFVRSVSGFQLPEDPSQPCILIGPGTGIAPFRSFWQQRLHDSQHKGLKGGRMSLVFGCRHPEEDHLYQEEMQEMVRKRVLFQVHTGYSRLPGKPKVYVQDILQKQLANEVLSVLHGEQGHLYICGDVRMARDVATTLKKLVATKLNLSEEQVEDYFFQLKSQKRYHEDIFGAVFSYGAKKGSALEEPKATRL
As to the kind of experiment: Compound was tested for inhibition of inducible Nitric oxide synthase in activated murine macrophages.

Assay [2] is described as follows: Compound was tested for inhibition of constitutive bovine brain Nitric oxide synthase. It is filed as tissue-based.

As to `O=[N+]([O-])c1ccc2cn[nH]c2c1`, the IC50 in assay [1] was 20 µM; in assay [2] it was 2.5 µM.
The compound `O=c1nnc2ccc3c(c2[nH]1)=CCCC=3` registered a concentration for half-maximal inhibition (IC50) in assay [1] of 50 µM. This counts as double-digit micromolar.
For the compound `c1ccc(-n2ccnc2)cc1`, in assay [1], the half-maximal inhibitory concentration (IC50) was 8 µM.
